Three compounds from patent US20230265151A1, “GIP/GLP1 CO-AGONIST COMPOUNDS” (priority 2020, published 2023) can be followed below.

The target in test [1] is T1, hGIPR (Homo sapiens, UniProt P48546).
T1 construct: expressed in transfected cells
T1 sequence (P48546 22-466): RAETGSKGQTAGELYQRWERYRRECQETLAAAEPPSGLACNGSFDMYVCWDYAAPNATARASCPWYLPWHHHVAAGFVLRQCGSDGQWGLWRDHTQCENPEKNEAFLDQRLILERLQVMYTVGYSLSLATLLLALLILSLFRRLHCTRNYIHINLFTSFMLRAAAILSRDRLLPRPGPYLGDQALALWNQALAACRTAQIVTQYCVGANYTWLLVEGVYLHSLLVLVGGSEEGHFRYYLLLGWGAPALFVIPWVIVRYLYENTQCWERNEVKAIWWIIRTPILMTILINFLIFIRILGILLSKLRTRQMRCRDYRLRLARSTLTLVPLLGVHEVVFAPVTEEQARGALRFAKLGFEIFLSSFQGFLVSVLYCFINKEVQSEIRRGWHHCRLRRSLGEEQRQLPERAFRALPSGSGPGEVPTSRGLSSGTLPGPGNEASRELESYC
In words: Functional cAMP formation (HTRF) in HEK-293 clonal cells expressing hGIPR, 0.1% bovine casein, without or with 1.0% human serum albumin. It counts as cell-based. The following applies: 37° C.; for Emax: HEK293, cAMP, 0.1% bovine casein and 1.0% human serum albumin, percent of maximal response to GIP(1-42)NH2, read-out: hGIPR Emax, % ± SEM; for EC50: cAMP, 0.1% bovine casein (no human serum albumin), geometric mean, read-out: hGIPR EC50, nM (SEM, n). Summed up: (§1)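 Readings of the HTRF 665/620 nm ratio, which falls as cAMP rises, were converted to nM cAMP using a standard curve after 30 min peptide exposure at 37° C.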
For orientation: Changes in cAMP serve as a functional read-out for many G protein-coupled receptors.

Test [2] addresses T2, human GIP receptor (hGIPR) (Homo sapiens, UniProt P48546).
T2 construct: expressed in transfected cells; crude membranes
T2 sequence (P48546 22-466): T1 sequence (P48546 22-466)
Kind of test: [125I]-GIP binding, SPA with membranes of CHO cells expressing hGIPR. The following applies: human GIPR; geometric mean (SEM, n); read-out: Binding Affinity Ki, nM (SEM, n) hGIPR.

Test [3] has as its target T3, human Gcg receptor (hGcgR) (Homo sapiens, UniProt P47871).
T3 construct: expressed in transfected cells; crude membranes
Kind of test: [125I]-Glucagon binding, SPA with membranes of HEK293 cells expressing hGcgR. The following applies: human GcgR; geometric mean (SEM, n); read-out: Binding Affinity Ki, nM (SEM, n) hGCGR.

In test [4] the target is hGLP-1R (Homo sapiens, UniProt P43220). Kind of test: Functional cAMP formation (HTRF) in HEK-293 clonal cells expressing hGLP-1R, 0.1% bovine casein, without or with 1.0% human serum albumin. It counts as cell-based. Details: expressed in transfected cells. The following applies: 37° C.; for Emax: HEK293, cAMP, percent of maximal response to GLP-1(7-36)NH2, read-out: hGLP-1R Emax, % ± SEM; for EC50: cAMP, 0.1% bovine casein (no human serum albumin), geometric mean, read-out: hGLP-1R EC50, nM (SEM, n). Summed up:
as §1

In test [5] the target is T4, human GLP-1 receptor (hGLP-1R) (Homo sapiens, UniProt P43220).
T4 construct: expressed in transfected cells; crude membranes
T4 sequence (P43220 24-463): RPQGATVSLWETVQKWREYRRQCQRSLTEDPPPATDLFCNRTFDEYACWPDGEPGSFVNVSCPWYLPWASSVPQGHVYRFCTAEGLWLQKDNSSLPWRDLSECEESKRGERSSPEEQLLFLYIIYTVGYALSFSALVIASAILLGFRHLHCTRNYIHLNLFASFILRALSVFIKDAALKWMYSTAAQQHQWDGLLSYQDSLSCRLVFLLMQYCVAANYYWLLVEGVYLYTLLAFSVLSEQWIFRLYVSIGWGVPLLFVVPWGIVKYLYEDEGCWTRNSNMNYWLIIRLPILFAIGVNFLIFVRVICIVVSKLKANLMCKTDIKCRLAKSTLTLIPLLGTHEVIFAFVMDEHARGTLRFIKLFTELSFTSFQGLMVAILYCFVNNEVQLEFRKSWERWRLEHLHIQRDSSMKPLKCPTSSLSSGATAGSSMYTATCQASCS
In words: [125I]-GLP-1 binding, SPA with membranes of HEK293 cells expressing hGLP-1R. The following applies: human GLP-1R; geometric mean (SEM, n); read-out: Binding Affinity Ki, nM (SEM, n) hGLP-1R.

Test [6] deals with T5, hGCGR (Homo sapiens, UniProt P47871).
T5 construct: expressed in transfected cells
T5 sequence (P47871 26-477): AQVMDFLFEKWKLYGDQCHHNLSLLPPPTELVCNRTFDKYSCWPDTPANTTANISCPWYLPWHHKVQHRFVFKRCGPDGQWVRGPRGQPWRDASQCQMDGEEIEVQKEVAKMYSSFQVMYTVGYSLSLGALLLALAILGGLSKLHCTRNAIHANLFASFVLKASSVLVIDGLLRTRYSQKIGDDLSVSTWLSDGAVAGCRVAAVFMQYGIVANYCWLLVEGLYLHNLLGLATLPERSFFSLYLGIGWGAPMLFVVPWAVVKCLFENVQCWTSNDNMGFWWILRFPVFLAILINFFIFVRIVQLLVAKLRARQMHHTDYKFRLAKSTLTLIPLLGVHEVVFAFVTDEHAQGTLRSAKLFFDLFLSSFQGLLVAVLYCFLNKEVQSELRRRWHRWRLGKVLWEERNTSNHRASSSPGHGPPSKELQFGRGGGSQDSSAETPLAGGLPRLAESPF
Kind of test: Functional cAMP formation (HTRF) in HEK-293 clonal cells expressing hGCGR, 0.1% bovine casein, without or with 1.0% human serum albumin. It counts as cell-based. The following applies: cAMP, 37° C., read-out: hGCGR EC50, nM (SEM, n). An outline of the steps:
as §1

[7] abbreviates: 0.1% bovine casein (no human serum albumin), geometric mean.
[8] abbreviates: 0.1% bovine casein and 1.0% human serum albumin, geometric mean (SEM, n).

Read-outs that look alike come from different tables or passages of the source.

T3 sequence (P47871 26-477): as above
Sequence of hGLP-1R (P43220 24-463): as the sequence (P43220 24-463) above

In the case of `CC[C@H](C)[C@H](NC(=O)[C@H](CC(C)C)NC(=O)[C@](C)(Cc1ccc(O)cc1)NC(=O)[C@H](CCCCNC(=O)CCCCCNC(=O)COCCOCCNC(=O)CC[C@H](NC(=O)CCCCCCCCCCCCC(=O)O)C(=O)O)NC(=O)[C@@H](NC(=O)[C@H](Cc1ccccc1)NC(=O)[C@H](CCCN)NC(=O)C(C)(C)NC(=O)[C@H](CCC(N)=O)NC(=O)[C@H](C)NC(=O)[C@H](CCC(N)=O)NC(=O)[C@H](CCCN)NC(=O)[C@H](CC(=O)O)NC(=O)[C@H](CC(C)C)NC(=O)[C@](C)(CC(C)C)NC(=O)[C@@H](NC(=O)C(C)(C)NC(=O)[C@H](Cc1ccncc1)NC(=O)[C@H](CC(=O)O)NC(=O)[C@H](CO)NC(=O)[C@@H](NC(=O)[C@](C)(Cc1ccccc1F)NC(=O)[C@@H](NC(=O)CNC(=O)[C@H](CCC(=O)O)NC(=O)C(C)(C)NC(=O)[C@@H](N)Cc1ccc(O)cc1)[C@@H](C)O)[C@@H](C)O)[C@@H](C)CC)[C@@H](C)CC)C(=O)N[C@@H](CCCCNC(=O)CCCCCNC(=O)COCCOCCNC(=O)CC[C@H](NC(=O)CCCCCCCCCCCCC(=O)O)C(=O)O)C(=O)NCC(=O)NCC(=O)N1CCC[C@H]1C(=O)N[C@@H](CO)C(=O)N[C@@H](CO)C(=O)NCC(=O)N[C@@H](C)C(=O)N1CCC[C@H]1C(=O)N1CCC[C@H]1C(=O)N1CCC[C@H]1C(=O)N[C@@H](CO)C(N)=O` [Example 451], the Emax – broadly, the size of the effect at its maximum, as opposed to the concentration needed – in test [1] is 89.5%; in test [4] (0.1% bovine casein, arithmetic mean) it was 118%. The half-maximal effective concentration (EC50) – broadly, the concentration giving half of the maximal effect – was 0.0113 nM in test [1], 0.172 nM in test [4], above 9950 nM in test [6] (setting [7]) and above 9950 nM in test [6] (setting [8]). Moreover, the Ki (in general, a dissociation constant, usually derived from enzyme kinetics or from competition with a known ligand) in test [2] was found to be 0.0239 nM; in test [3] it was 258 nM; in test [5], 0.234 nM.
As to `CCCCCCCCCCCC(=O)N[C@@H](CCC(=O)NCCOCCOCC(=O)NCCOCCOCC(=O)NCCCC[C@H](NC(=O)[C@H](CCCN)NC(=O)[C@H](CC(=O)O)NC(=O)[C@H](CC(C)C)NC(=O)[C@](C)(CC(C)C)NC(=O)[C@@H](NC(=O)C(C)(C)NC(=O)[C@H](Cc1ccncc1)NC(=O)[C@H](CC(=O)O)NC(=O)[C@H](CO)NC(=O)[C@@H](NC(=O)[C@](C)(Cc1ccccc1F)NC(=O)[C@@H](NC(=O)CNC(=O)[C@H](CCC(=O)O)NC(=O)C(C)(C)NC(=O)[C@@H](N)Cc1ccc(O)cc1)[C@@H](C)O)[C@@H](C)O)[C@@H](C)CC)C(=O)N[C@@H](C)C(=O)N[C@@H](CCC(N)=O)C(=O)NC(C)(C)C(=O)NCC(=O)N[C@@H](Cc1ccccc1)C(=O)N[C@H](C(=O)N[C@H](CCC(=O)O)C(=O)N[C@@](C)(Cc1ccc(O)cc1)C(=O)N[C@@H](CC(C)C)C(=O)N[C@H](C(=O)N[C@@H](CCCCNC(=O)COCCOCCNC(=O)COCCOCCNC(=O)CC[C@H](NC(=O)CCCCCCCCCCC)C(=O)O)C(=O)NCC(=O)NCC(=O)N1CCC[C@H]1C(=O)N[C@@H](CO)C(=O)N[C@@H](CO)C(=O)NCC(=O)N[C@@H](C)C(=O)N1CCC[C@H]1C(=O)N1CCC[C@H]1C(=O)N1CCC[C@H]1C(=O)N[C@@H](CO)C(N)=O)[C@@H](C)CC)[C@@H](C)CC)C(=O)O` [Example 494], the Emax in test [1] is 92.6%. Also, the EC50 in test [1] is 0.0123 nM; in test [4], 0.15 nM; in test [6] (setting [7]), above 9950 nM; in test [6] (setting [8]), above 9950 nM. Besides, the Ki stood at 0.0197 nM in test [2], 135 nM in test [3] and 0.188 nM in test [5].
`CC[C@H](C)[C@H](NC(=O)[C@H](CC(C)C)NC(=O)[C@](C)(Cc1ccc(O)cc1)NC(=O)[C@H](CCCCNC(=O)COCCOCCNC(=O)COCCOCCNC(=O)COCCOCCNC(=O)CC[C@H](NC(=O)CCCCCCCCCCCCC(=O)O)C(=O)O)NC(=O)[C@@H](NC(=O)[C@H](Cc1ccccc1)NC(=O)[C@H](CCCN)NC(=O)C(C)(C)NC(=O)[C@H](CCC(N)=O)NC(=O)[C@H](C)NC(=O)[C@H](CCC(N)=O)NC(=O)[C@H](CCCN)NC(=O)[C@H](CC(=O)O)NC(=O)[C@H](CC(C)C)NC(=O)[C@](C)(CC(C)C)NC(=O)[C@@H](NC(=O)C(C)(C)NC(=O)[C@H](Cc1ccc(O)cc1)NC(=O)[C@H](CC(=O)O)NC(=O)[C@H](CO)NC(=O)[C@@H](NC(=O)[C@](C)(Cc1ccccc1F)NC(=O)[C@@H](NC(=O)CNC(=O)[C@H](CCC(=O)O)NC(=O)C(C)(C)NC(=O)[C@@H](N)Cc1ccc(O)cc1)[C@@H](C)O)[C@@H](C)O)[C@@H](C)CC)[C@@H](C)CC)C(=O)N[C@@H](CCCCNC(=O)COCCOCCNC(=O)COCCOCCNC(=O)COCCOCCNC(=O)CC[C@H](NC(=O)CCCCCCCCCCCCC(=O)O)C(=O)O)C(=O)NCC(=O)NCC(=O)N1CCC[C@H]1C(=O)N[C@@H](CO)C(=O)N[C@@H](CO)C(=O)NCC(=O)N[C@@H](C)C(=O)N1CCC[C@H]1C(=O)N1CCC[C@H]1C(=O)N1CCC[C@H]1C(=O)N[C@@H](CO)C(N)=O` [Example 479]: the maximal effect (Emax) in test [1] was found to be 89.5%; in test [4] (0.1% bovine casein and 1.0% human serum albumin) it was 95.3%. Also, the EC50 is 0.00718 nM in test [1], 0.115 nM in test [4], above 9950 nM in test [6] (setting [7]) and above 9950 nM in test [6] (setting [8]). Further, the Ki in test [2] stood at 0.0249 nM; in test [3] it was 213 nM; in test [5], 0.246 nM.
